Assay results: patent US20120157500A1, “JAK INHIBITION BLOCKS RNA INTERFERENCE ASSOCIATED TOXICITIES” (priority 2009, published 2012)

Experiments:
[1] = system: LF01-SSB-induced lethality and visible hematuria; test: Suppression of LF01-SSB-induced lethality and visible hematuria by inhibitors; assay type: in vivo; conditions: rats; for Rescue effect: Death, +inhibitor/−inhibitor / Rescue effect: Red urine, +inhibitor/−inhibitor: inhibitor 1 hr prior to LF01-SSB 9 mg/kg IV, animals with inhibitor/without inhibitor; for Rescue effect: Death, +inhibitor/−inhibitor: deaths until 96 hr; for Rescue effect: Red urine, +inhibitor/−inhibitor: urine collected over 24 hr
Text: Since LF01-siRNA nanoparticles provoked lethality and multifactorial toxicities involving different systems in rats, this offers an in vivo model for pharmacologically probing the mechanism that triggers LF01-siRNA toxicities. We first evaluated the suppression of LF01-SSB-induced lethality and visible hematuria by anti-inflammation drugs and pathway-specific inhibitors of the innate immune system as shown in Table 1. […] Rats were pre-dosed with either a vehicle or one of these reagents using the dosing regimen listed in Table 1, followed by an IV dose of LF01-SSB at 9 mpk 1 hr later, and animals were monitored for lethality for 96 hr. In addition, urine was collected over the course of 24 hr for visual observation of hematuria.
Rats were dosed with PBS or one of these inhibitors 1 hr prior to IV administration of PBS or […] at 9 mg/kg. Urine samples were collected over a course of 24 hr for visual examination of hematuria (red urine). Animals were monitored for lethality until 96 hr post LF01-SSB dose. Unscheduled deaths and cases of visible hematuria in animals receiving LF01-SSB with or without inhibitor pretreatment were scored and presented.
(§1) Rat studies. All animal studies were conducted at AAALAC-accredited Merck Research laboratories' animal facility located at West Point, Pa., and all study protocols were approved by Merck West Point Institutional Animal Care and Use Committee (IACUC). Female Sprague-Dawley (SD) rats obtained from Charles River were used in these studies at an age of 4-6 weeks and with a body weight of 120-160 grams. Anti-inflammation agents were administrated using the dosing regimens listed in Table 1, 1 hr prior to tail vein injection of liposomal siRNA nanoparticles in PBS in a volume of 0.8 ml under normal pressure. At 3 hr post injection of liposomal siRNA, ˜0.2 ml blood was collected by retro-orbital bleed under anesthesia and processed as plasma for the assessment of cytokines. At 24 hr, blood was collected for evaluation of complete blood cell counts (CBC), coagulation parameters and serum chemistry by venipuncture under anesthesia followed by exsanguination, and tissues from liver, spleen and kidney were collected for determination of SSB and ApoB mRNA levels and TUNEL analysis. For visual examination of urine color, rats were housed in metabolic cages to collect urine over a course of 24 hours after injection of liposomal siRNA nanoparticles. Animals were examined 3 times a day for detection of lethality over a course of 96 hours.

[2] = system: LF01-SSB-induced toxicities; test: LF01-SSB-induced toxicities in rats with or without inhibitor pretreatment; assay type: in vivo; conditions: for suppression of cytokine release, elevation of serum transaminases, thrombocytopenia or coagulopathy induced by LF01-SSB: pretreatment before LF01-SSB 3 mg/kg
Method: as §1, with “At 24 hr, blood was collected for evaluation of complete blood cell counts (CBC), coagulation parameters and serum chemistry by venipuncture under anesthesia followed by exsanguination, and tissues from liver, spleen and kidney were collected for determination of SSB and ApoB mRNA levels and TUNEL analysis.” left out
Analyses of rat blood samples. Cytokines in plasma were quantified using a microsphere bead-based, multiplexed assay, Milliplex™ RCYTO-80K-PMX23 (Millipore) which allows simultaneous quantification of 23 rat cytokines including IFNγ, IL-6, MCP-1 and TNFα. All CBC, coagulation and serum chemistry parameters were analyzed by Merck Laboratory of Animal Resources and the Safety Assessment Department at West Point, Pa. CBC was determined on whole blood placed in an EDTA-treated tube using an Advia 120 Hematology Analyzer (Siemens). Coagulation parameters in citrated plasma were assessed with a Behring Coagulation System (Siemens) and serum chemistry evaluation was conducted with an Advia 1800 Clinical Chemistry Analyzer (Siemens).
TUNEL (Terminal deoxynucleotidyl transferase-mediated dUTP-biotin Nick End Labeling). TUNEL staining in tissue sections was performed using a ‘TACS™ TdT-Blue Label in Situ Apoptosis Detection Kit’ (Trevigen). Briefly, 5 μm paraffin embedded sections of liver tissue were deparaffinized, fixed, labeled, and counterstained according to the manufacturer's recommendations. In Situ labeling procedure includes extension of 3′ ends with Biotin-dNTP (TdT Labeling Rxn), followed by additions of Strep-HRP and “TACS-Blue” Label or DAB for color development. TUNEL signal was quantified using the Arial system (Applied Imaging). Quantification of mRNA. qRT-PCR assays were used to quantify SSB and ApoB mRNA levels relative to the housekeeping gene Ppib in lysates prepared from tissues using kits from Applied Biosystems. The catalog numbers are Rn0057621_g1 for SSB, Rn01499054_m1 for ApoB and Rn03302274_m1 for Ppib.

IKK1 = molecular target: T1, IKK1 (Homo sapiens, UniProt O15111); conditions: Table 1, from former studies; cited from earlier work
T1 sequence (O15111 1-745): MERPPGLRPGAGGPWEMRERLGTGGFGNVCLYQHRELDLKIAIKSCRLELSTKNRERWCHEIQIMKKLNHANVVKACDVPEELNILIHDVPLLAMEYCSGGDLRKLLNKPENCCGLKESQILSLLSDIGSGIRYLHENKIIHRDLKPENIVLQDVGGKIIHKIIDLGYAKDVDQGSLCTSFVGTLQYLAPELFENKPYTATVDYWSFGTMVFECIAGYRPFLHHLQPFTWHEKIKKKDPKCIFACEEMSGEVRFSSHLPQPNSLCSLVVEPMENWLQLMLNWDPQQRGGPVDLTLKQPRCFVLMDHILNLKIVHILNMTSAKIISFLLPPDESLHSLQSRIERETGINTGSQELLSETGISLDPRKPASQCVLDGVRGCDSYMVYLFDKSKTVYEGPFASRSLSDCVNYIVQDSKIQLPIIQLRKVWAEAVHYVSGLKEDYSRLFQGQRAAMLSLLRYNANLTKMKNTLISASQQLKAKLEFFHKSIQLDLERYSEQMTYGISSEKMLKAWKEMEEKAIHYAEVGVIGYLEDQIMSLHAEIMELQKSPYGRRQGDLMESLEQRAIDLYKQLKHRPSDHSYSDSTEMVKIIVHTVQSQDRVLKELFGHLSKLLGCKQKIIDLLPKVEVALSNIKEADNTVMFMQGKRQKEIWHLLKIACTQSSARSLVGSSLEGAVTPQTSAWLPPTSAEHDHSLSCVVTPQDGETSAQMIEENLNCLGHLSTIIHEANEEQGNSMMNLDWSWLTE

IKK2 = molecular target: T2, IKK2 (Homo sapiens, UniProt O14920); conditions: Table 1, from former studies; cited from earlier work
T2 sequence (O14920 1-756): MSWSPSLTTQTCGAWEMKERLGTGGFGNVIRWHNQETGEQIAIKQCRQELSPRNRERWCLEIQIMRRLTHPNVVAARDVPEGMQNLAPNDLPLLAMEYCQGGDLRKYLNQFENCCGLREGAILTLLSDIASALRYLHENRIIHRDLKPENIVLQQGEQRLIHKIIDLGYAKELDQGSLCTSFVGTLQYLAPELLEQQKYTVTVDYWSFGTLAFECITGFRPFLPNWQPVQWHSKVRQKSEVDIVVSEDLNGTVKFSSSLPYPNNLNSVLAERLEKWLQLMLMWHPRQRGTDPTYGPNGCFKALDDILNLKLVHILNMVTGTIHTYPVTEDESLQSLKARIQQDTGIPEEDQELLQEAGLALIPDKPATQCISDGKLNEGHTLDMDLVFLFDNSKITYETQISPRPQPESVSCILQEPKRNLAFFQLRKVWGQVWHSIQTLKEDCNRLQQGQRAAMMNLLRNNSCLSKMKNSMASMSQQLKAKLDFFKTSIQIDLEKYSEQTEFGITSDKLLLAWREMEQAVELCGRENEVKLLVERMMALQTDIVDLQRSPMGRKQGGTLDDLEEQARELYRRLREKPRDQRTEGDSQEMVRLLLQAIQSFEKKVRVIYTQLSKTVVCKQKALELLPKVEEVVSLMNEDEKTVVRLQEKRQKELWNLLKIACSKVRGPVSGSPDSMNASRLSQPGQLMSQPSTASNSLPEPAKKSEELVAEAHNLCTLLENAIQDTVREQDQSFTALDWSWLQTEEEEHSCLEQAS

| Compound | Rescue effect: Death, +inhibitor/−inhibitor [1] | Rescue effect: Red urine, +inhibitor/−inhibitor [1] | suppression of cytokine release, elevation of serum transaminases, thrombocytopenia or coagulopathy induced by LF01-SSB ([2]; rats) | effect on LF01-SSB-induced coagulopathy (elongation of aPTT) ([2]; rat, in vivo) | effect on LF01-siRNA induction of IL-6 ([2]; rats, plasma 3 hr post LF01-SSB dose) | effect on LF01-SSB-induced lethality and visible hematuria ([1]; pre-dosed 1 hr before LF01-SSB 9 mpk IV, monitored 96 hr) | effect on LF01-SSB toxic responses (cytokine induction, ALT and AST elevation, thrombocytopenia, elongation of aPTT, hepatic and splenic cell death) ([2]; rat, in vivo) | effect on LF01-SSB-induced coagulopathy (elongation of aPTT) ([2]; rats, pre-dosed 1 hr prior to LF01-SSB 3 mg/kg IV, 24 hr) | IC50 (IKK1) | IC50 (IKK2) |
| --- | --- | --- | --- | --- | --- | --- | --- | --- | --- | --- |
| N=C(N)NN [Aminoguanidine] | 4/3 | 2/3 | no appreciable suppression |  |  |  |  |  |  |  |
| Cc1ccc(-c2ncc(Cl)cc2-c2ccc(S(C)(=O)=O)cc2)cn1 [Etoricoxib] | 4/3 | 4/4 | no appreciable suppression |  |  |  |  |  |  |  |
| C[S+]([O-])c1ccc(-c2nc(-c3ccncc3)c(-c3ccc(F)cc3)[nH]2)cc1 (stereo not shown) [SB-203580] | 2/5 | 2/5 |  | no mitigation effect | abrogated |  |  |  |  |  |
| C[C@@H]1CCN(C(=O)CC#N)C[C@@H]1N(C)c1ncnc2[nH]ccc12 [CP-690550] | 0/4 | 0/4 |  |  |  | prevented | suppression of toxic responses |  |  |  |
| N.S=C(S)N1CCCC1 [PDTC] | 4/5 | 3/5 |  |  |  |  |  | no mitigation effect | 400 nM | 20 nM |
